Experimental findings from ChEMBL document CHEMBL1201862, “PubChem BioAssay data set” (2004) are described below.

Some test systems named below: HT-29; UACC-257; Hs-578T; HCT-15; NCI-H226; MDA-MB-231; OVCAR-8; PC-3; OVCAR-3; SNB-19; NCI-H23; HOP-62; TK-10; IGROV-1; SK-MEL-2; SF-539; OVCAR-4; OVCAR-5; K562.
Common to all, as to assay: NCI tumour cell line growth inhibition, 48 h

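96-well plates; 48 h exposure; 5 concentrations. Endpoints by linear interpolation between flanking doses. Not reached: highest tested concentration assigned. GI50: concentration for 50% inhibition of growth.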 Activity calls are given as the source filed them. Cut-off read from the data, not from the text of the source: active = GI50 up to about 1.1 µM and inactive = higher.

As for `COC(=O)c1c(O)ccc2c1c1c(n2Cc2ccccc2)C(=O)c2ccccc2C1`, the GI50 was 18.4 µM (inactive) in the assay on HT-29; 50.6 µM (inactive) with UACC-257; 86.5 µM (inactive) in the assay on Hs-578T; 35.1 µM in the assay with HCT-15; 46.3 µM (inactive) in the assay on NCI-H226; 39.7 µM (inactive) in the assay with MDA-MB-231. The GI50 was 39.7 µM (inactive) in the assay on OVCAR-8; 20 µM (inactive) in the assay on PC-3; 43 µM (inactive) in the assay with OVCAR-3; 95.5 µM (inactive) in the assay on SNB-19; 41.2 µM (inactive) in the assay with NCI-H23; > 100 µM (inactive) with HOP-62. Besides, the GI50 is 65.9 µM (inactive) with TK-10; 40.6 µM (inactive) in the assay on IGROV-1; 43.6 µM (inactive) in the assay with SK-MEL-2; 26.2 µM (inactive) in the assay on SF-539; 18.6 µM (inactive) with OVCAR-4; 0.0282 µM (active) in the assay on OVCAR-5. In addition, in the assay with K562, the GI50 was 2.84 µM (inactive).

With `O=C(CC(O)(C(F)(F)F)C(F)(F)F)c1cc(CC(=O)C(O)(C(F)(F)F)C(F)(F)F)cc(CC(=O)C(O)(C(F)(F)F)C(F)(F)F)c1`, the GI50 in the assay with HT-29 was 1.4 µM (inactive); in the assay with UACC-257, 1.95 µM (inactive); in the assay with Hs-578T, 2.05 µM (inactive); in the assay on HCT-15, 0.971 µM; in the assay on NCI-H226 it was 3.01 µM (inactive); with MDA-MB-231, 1.64 µM (inactive). Also, the GI50 in the assay with OVCAR-8 was 1.95 µM (inactive); in the assay with PC-3 it was 0.78 µM (active); in the assay on OVCAR-3, 0.454 µM (active); in the assay on SNB-19, 2.67 µM (inactive); in the assay with NCI-H23, 0.867 µM (active); in the assay with HOP-62, 1.46 µM (inactive). In addition, the GI50 is 2.4 µM (inactive) in the assay on TK-10; 1.65 µM (inactive) in the assay with IGROV-1; 1.75 µM (inactive) with SK-MEL-2; 2.05 µM (inactive) with SF-539; 1.77 µM (inactive) with OVCAR-4; 3.01 µM (inactive) in the assay on OVCAR-5. The GI50 in the assay on K562 is > 10 µM (inactive).

With `C=C1C(=O)OC2/C=C(/C)C(OC(C)=O)C/C=C(\C)C(OC(=O)C3(C)OC3C)C(O)C12` (stereo not given), the GI50 with HT-29 is > 100 µM (inactive); with UACC-257, > 100 µM (inactive); with Hs-578T, > 100 µM (inactive); in the assay with HCT-15, 53.3 µM; with NCI-H226, > 100 µM (inactive); with MDA-MB-231 it was > 100 µM (inactive). Moreover, the GI50 in the assay with OVCAR-8, in the assay on PC-3, in the assay with OVCAR-3, in the assay on SNB-19, in the assay on NCI-H23 and in the assay on HOP-62 was > 100 µM (inactive) each time. Besides, the GI50 in the assay with TK-10, in the assay on IGROV-1, in the assay with SK-MEL-2, in the assay on SF-539, in the assay on OVCAR-4 and in the assay on OVCAR-5 was > 100 µM (inactive) each time. The GI50 in the assay with K562 is 40.8 µM (inactive).

For the compound `CC1=CC(=O)[C@@H](O)[C@]2(C)[C@H]3[C@@]4(O)OC[C@]35[C@H]([C@@H](C)[C@H]4O)[C@@H](OC(=O)C(C)(C)CO)C(=O)O[C@@H]5C[C@@H]12`, the GI50 in the assay with HT-29 is 0.207 µM (active); in the assay with UACC-257, 0.118 µM (active); with Hs-578T, 0.046 µM (active); in the assay on HCT-15 it was 0.292 µM; in the assay with NCI-H226, < 0.0216 µM (active); in the assay on MDA-MB-231 it was 0.363 µM (active). The GI50 with OVCAR-8 is 0.19 µM (active); with PC-3 it was 0.0698 µM (active); in the assay on OVCAR-3, < 0.0231 µM (active); in the assay with SNB-19, 0.05 µM (active); in the assay with NCI-H23 it was < 0.0179 µM (active); with HOP-62, 0.0989 µM (active). Also, the GI50 was 0.575 µM (active) with TK-10; < 0.0165 µM (active) in the assay with IGROV-1; < 0.0453 µM (active) in the assay on SK-MEL-2; < 0.0153 µM (active) with SF-539; 0.122 µM (active) in the assay with OVCAR-4; 0.701 µM (active) in the assay on OVCAR-5. Besides, in the assay with K562, the GI50 was 0.0123 µM (active).

On to `O=c1oc2ccccc2cc1-c1csc(Nc2ccc(F)cc2)n1`, for which the GI50 with HT-29 was 3.43 µM (inactive); in the assay with UACC-257, 14.8 µM (inactive); in the assay with Hs-578T, 2.36 µM (inactive); in the assay with HCT-15, 2.86 µM; in the assay with NCI-H226, 3.1 µM (inactive); in the assay on MDA-MB-231 it was 11.3 µM (inactive). Moreover, the GI50 is 2.77 µM (inactive) in the assay on OVCAR-8; 5.43 µM (inactive) in the assay on PC-3; 6.55 µM (inactive) in the assay with OVCAR-3; 8.15 µM (inactive) with SNB-19; 2.9 µM (inactive) in the assay with NCI-H23; 2.99 µM (inactive) with HOP-62. The GI50 with TK-10 was 2.98 µM (inactive); in the assay on IGROV-1 it was 4.99 µM (inactive); with SK-MEL-2, 14.8 µM (inactive); with SF-539, 1.91 µM (inactive); in the assay on OVCAR-4, 7.31 µM (inactive); in the assay on OVCAR-5 it was 8.38 µM (inactive). Besides, the GI50 with K562 was 2.56 µM (inactive).

Regarding `CCN(CC)CCCNc1ccc([N+](=O)[O-])c2nc3ccc(OC)cc3c(N)c12`, the GI50 is 1.77 µM (inactive) in the assay on HT-29; > 10 µM (inactive) in the assay with UACC-257; 1.2 µM (inactive) in the assay on Hs-578T; 1.72 µM in the assay on HCT-15; > 10 µM (inactive) with NCI-H226; 1.7 µM (inactive) with MDA-MB-231. For the same compound, the GI50 was 1.95 µM (inactive) in the assay on OVCAR-8; 1.75 µM (inactive) with PC-3; > 4.46 µM (inactive) in the assay on OVCAR-3; > 4.34 µM (inactive) in the assay on SNB-19; 2.29 µM (inactive) with NCI-H23; > 10 µM (inactive) with HOP-62. Besides, the GI50 was > 10 µM (inactive) in the assay on TK-10; 2.58 µM (inactive) in the assay with IGROV-1; > 9.33 µM (inactive) in the assay on SK-MEL-2; 1.85 µM (inactive) in the assay with SF-539; 1.92 µM (inactive) with OVCAR-4; > 10 µM (inactive) in the assay on OVCAR-5. Also, the GI50 in the assay with K562 is 2.1 µM (inactive).

As to `N=C(N)CCNC(=O)C1CCC(N)=N1` (stereo not given), the GI50 with HT-29 was 5.2 µM (inactive); with UACC-257, 13.7 µM (inactive); with Hs-578T, 8.36 µM (inactive); with HCT-15, 37.9 µM; in the assay with NCI-H226, 18.1 µM (inactive); in the assay on MDA-MB-231 it was 14.7 µM (inactive). Besides, the GI50 is 7.28 µM (inactive) in the assay on OVCAR-8; 6 µM (inactive) with PC-3; 9.82 µM (inactive) in the assay with OVCAR-3; 6.76 µM (inactive) in the assay with SNB-19; 16.1 µM (inactive) in the assay with NCI-H23; 4.38 µM (inactive) in the assay with HOP-62. Besides, the GI50 in the assay on TK-10 was 22.7 µM (inactive); in the assay with IGROV-1 it was 8.49 µM (inactive); in the assay with SK-MEL-2, 27.2 µM (inactive); in the assay with SF-539 it was 11.6 µM (inactive); in the assay with OVCAR-4, 9.48 µM (inactive); with OVCAR-5, 19.1 µM (inactive). In addition, in the assay with K562, the GI50 was 13.2 µM (inactive).

As to `Cc1nc2c(=O)n(C)c(=O)n(C)c2o1`, the GI50 was > 100 µM (inactive) in the assay with HT-29; > 100 µM (inactive) with UACC-257; > 100 µM (inactive) with Hs-578T; above 100 µM with HCT-15; > 100 µM (inactive) with NCI-H226; > 100 µM (inactive) in the assay on MDA-MB-231. Also, the GI50 in the assay with OVCAR-8, with PC-3, in the assay with OVCAR-3, in the assay on SNB-19, in the assay with NCI-H23 and in the assay on HOP-62 was > 100 µM (inactive) each time. For the same compound, the GI50 with TK-10, in the assay with IGROV-1, with SK-MEL-2, with SF-539, with OVCAR-4 and in the assay with OVCAR-5 was > 100 µM (inactive) in each case. Also, the GI50 in the assay on K562 is > 100 µM (inactive).

With `Nc1nc(I)nc2c1ncn2C1OC(COS(N)(=O)=O)C(O)C1O` (stereo not given), the GI50 was < 0.0106 µM (active) in the assay with HT-29; 0.0163 µM (active) in the assay with UACC-257; < 0.01 µM (active) in the assay with Hs-578T; 0.0176 µM in the assay on HCT-15; < 0.01 µM (active) with NCI-H226; < 0.01 µM (active) in the assay on MDA-MB-231. The GI50 in the assay with OVCAR-8 was < 0.01 µM (active); in the assay on PC-3 it was < 0.01 µM (active); with OVCAR-3, < 0.01 µM (active); in the assay on SNB-19, < 0.01 µM (active); in the assay with NCI-H23, < 0.01 µM (active); in the assay on HOP-62, 0.0218 µM (active). Further, the GI50 was 0.0102 µM (active) with TK-10; 0.0128 µM (active) with IGROV-1; < 0.01 µM (active) in the assay with SK-MEL-2; < 0.01 µM (active) with SF-539; < 0.01 µM (active) with OVCAR-4; < 0.01 µM (active) in the assay on OVCAR-5. Also, in the assay on K562, the GI50 was < 0.01 µM (active).

In the case of `CCOC(=O)c1c(Sc2ccc([N+](=O)[O-])cc2[N+](=O)[O-])nc2c3ccccc3ccn12`, the GI50 is > 100 µM (inactive) in the assay with HT-29; > 100 µM (inactive) in the assay with UACC-257; 13.8 µM (inactive) with Hs-578T; above 100 µM in the assay on HCT-15; 83.6 µM (inactive) with NCI-H226; 29.1 µM (inactive) in the assay with MDA-MB-231. Further, the GI50 with OVCAR-8 is 33.8 µM (inactive); in the assay with PC-3, > 100 µM (inactive); in the assay with OVCAR-3, > 92.5 µM (inactive); in the assay with SNB-19 it was > 68.1 µM (inactive); with NCI-H23, > 91 µM (inactive); in the assay with HOP-62, 13.1 µM (inactive). The GI50 with TK-10 is > 55.7 µM (inactive); in the assay on IGROV-1 it was > 31.6 µM (inactive); in the assay on SK-MEL-2, > 100 µM (inactive); in the assay with SF-539 it was 15 µM (inactive); in the assay with OVCAR-4, 10.7 µM (inactive); with OVCAR-5, > 100 µM (inactive). Besides, the GI50 in the assay with K562 was > 100 µM (inactive).
